Reference: patent US11717477B2, “Vaginal systemic drug delivery” (LiGalli B.V., priority 2018, dated 2023)
Where “and” joins values, the source holds several entries; their conditions need not be identical. Equal entries are not always repeated. Structures can show the parent of a compound that is named as a salt. Where two headings read alike, the source gives them in different places.

Legend:
in vivo = settings: female, Beagle, dog
[1] = cited from earlier work
[2] = cited from earlier work; remark: listed apart in the source
[3] = physiological release of oxytocin; cited from earlier work
[4] = 0.8 mg, Lorazepam 0.8 mg (1st), vaginal, present study
[5] = 0.8 mg, Lorazepam 0.8 mg (2nd), vaginal, present study
[6] = vaginal administration, Beagle dogs, two animals per compound
[7] = Human, Lorazepam 2.0 mg, intramuscular, Wermeling
[8] = Human, Lorazepam 2.0 mg, intravenous, Wermeling
[9] = Human, Lorazepam 2.0 mg, nasal, Wermeling
[10] = Human, Lorazepam 2.0 mg, oral, Blin
[11] = 5 min after first vaginal dose, individual dogs
[12] = 10 min after first vaginal dose, individual dogs
[13] = 20 min after first vaginal dose, individual dogs
[14] = 30 min after first vaginal dose, individual dogs
[15] = 60 min after first vaginal dose, individual dogs
[16] = 135 min after first dose (second vaginal dose at 125 min), individual dogs
[17] = 155 min after first dose (second vaginal dose at 125 min), individual dogs
[18] = 185 min after first dose (second vaginal dose at 125 min), individual dogs
[19] = Dog, Lorazepam 0.8 mg (1st), vaginal, present study
[20] = Human, Nicotine 2.0 mg, intrapulmonary, Russell
[21] = Human, Nicotine 4.0 mg, oral (gum), Russell
[22] = Dog, 2.5 mg/24 h, vaginal (ring), WO2011163358
[23] = Dog, 6.0 mg/24 h, vaginal (ring), WO2011163358
[24] = Dog, 10 mg/24 h, oral, WO2011163358
[25] = Human, dose 5.0, dermal (patch), Kennelly
[26] = Human, dose 5.0, oral (ext. rel.), Kennelly
[27] = Human, dose 5.0, oral, Kennelly
[28] = Human, dose 100, dermal (gel), Kennelly

## CC(C)C[C@H](NC(=O)CNC(=O)[C@H](Cc1ccc(O)cc1)NC(=O)[C@H](CO)NC(=O)[C@H](Cc1c[nH]c2ccccc12)NC(=O)[C@H](Cc1cnc[nH]1)NC(=O)[C@@H]1CCC(=O)N1)C(=O)N[C@@H](CCCNC(=N)N)C(=O)N1CCC[C@H]1C(=O)NCC(N)=O [GnRH, Gonadotropin-releasing hormone]
In vivo; 0.5 mg
  Tmax: 10 min
In vivo; 50 uL, Plasma concentration
  level at 20 min: 0.41 ng/mL
  level at 0.5 h: 0.2 ng/mL
  level at 2.25 h: 0.71 ng/mL
  level at 245 min: 0.19 ng/mL
In vivo
  Tmax: ≤ 5 min
[1]; human, in vivo, inhaled or intranasal, 0.8 mg
  Cmax: 0.35 ng/mL
[1]; human, in vivo
  Cmax: 0.002 ng/mL
dog, in vivo
  Plasma concentration: <LLOQ
  Time until plasma levels fall below LLOQ / return to baseline: ≤ 60 min
female, Beagle, dog, in vivo, 0.5 mg
  Tmax: 5 min

## O=C1Nc2ccc(Cl)cc2C(c2ccccc2Cl)=NC1O (stereo not drawn) [Lorazepam]
In vivo; [4]
  Cmax: 4 ng/mL
  Tmax: 5 min
In vivo; [5]
  Cmax: 7.8 ng/mL
  Tmax: 10 min
In vivo; [6]
  Tmax: 10 min
[1]; [7]
  Cmax: 22.6 ng/mL
  Tmax: 180 min
[1]; [8]
  Cmax: 47.6 ng/mL
  Tmax: 6 min
[1]; [9]
  Cmax: 33.4 ng/mL
  Tmax: 55 min
[1]; [10]
  Cmax: 33.4 ng/mL
  Tmax: 55 min
[11]
  Plasma concentration: 1.55 ng/mL and 3.93 ng/mL
[12]
  Plasma concentration: 2.65 ng/mL and 3.47 ng/mL
[13]
  Plasma concentration: 2.23 ng/mL and 4.25 ng/mL
[14]
  Plasma concentration: 1.49 ng/mL and 3.28 ng/mL
[15]
  Plasma concentration: 0.38 ng/mL and 0.99 ng/mL
[16]
  Plasma concentration: 7.65 ng/mL and 7.13 ng/mL
[17]
  Plasma concentration: 4.96 ng/mL and 6.16 ng/mL
[18]
  Plasma concentration: 1.89 ng/mL and 3.32 ng/mL
[19]
  Cmax: 2.8 ng/mL
  Tmax: 10 min
Dog, Lorazepam 0.8 mg (2nd), vaginal, present study
  Cmax: 7.0 ng/mL
Pre-dose, individual dogs
  Plasma concentration: <LLOQ
After vaginal administration, Beagle dogs
  Time until plasma levels fall below LLOQ / return to baseline: ≤ 120 min
[6]
  Tmax: 20 min

## CN1CCCC1c1cccnc1 (stereo not drawn) [Nicotine]
[2]; dog, in vivo, po, 64 mg
  Tmax: 120 min
[2]; dog, in vivo, po, 148 mg
  Tmax: 60 min
In vivo; 2.5 mg
  Tmax: 10 min
In vivo
  Tmax: ≤ 5 min
[1]; [20]
  Cmax: 49 ng/mL
  Tmax: 2 min
[1]; [21]
  Cmax: 40 ng/mL
  Tmax: 30 min
dog, in vivo
  Cmax / plasma concentration of one animal relative to the other animal: more than 4 times
female, Beagle, dog, in vivo
  Time until plasma levels fall below LLOQ / return to baseline: ≤ 120 min
  Tmax: 10 min
female, Beagle, dog, in vivo, 2.5 mg
  Tmax: 5 min

## O=[N+]([O-])OCC(CO[N+](=O)[O-])O[N+](=O)[O-] [Nitroglycerin]
[11]
  Plasma concentration: <LLOQ
[12]
  Plasma concentration: <LLOQ
[13]
  Plasma concentration: <LLOQ
[14]
  Plasma concentration: <LLOQ
[15]
  Plasma concentration: <LLOQ
120 min after first vaginal dose, individual dogs
  Plasma concentration: <LLOQ
[16]
  Plasma concentration: <LLOQ
[17]
  Plasma concentration: <LLOQ
[18]
  Plasma concentration: <LLOQ
245 min after first dose (second vaginal dose at 125 min), individual dogs
  Plasma concentration: <LLOQ
Pre-dose, individual dogs
  Plasma concentration: <LLOQ
After vaginal administration of Nitroglycerin, Beagle dogs, listed as nitroglycerin
  Parent compound concentration detectable in plasma: no detectable concentrations

## CCN(CC)CC#CCOC(=O)C(O)(c1ccccc1)C1CCCCC1 (stereo not drawn) [Oxybutynin HCl]
[2]; [22]
  Cmax: 14.0 ng/mL
  Tmax: 90 min
[2]; [23]
  Cmax: 18.8 ng/mL
  Tmax: 90 min
[2]; [24]
  Cmax: 17.9 ng/mL
  Tmax: 180 min
In vivo
  Tmax: 10 min
[1]; [25]
  Cmax: 4.2 ng/mL
  Tmax: 1500 min
[1]; [26]
  Cmax: 2.1 ng/mL
  Tmax: 60 min
[1]; [27]
  Cmax: 10.0 ng/mL
  Tmax: 50 min
[1]; [28]
  Cmax: 3.2 ng/mL
  Tmax: 1500 min
dog, in vivo
  Cmax / plasma concentration of one animal relative to the other animal: more than 3 times
  Elimination from the body: almost completely eliminated
  Plasma concentration: <LLOQ

## CC[C@H](C)[C@@H]1NC(=O)[C@H](Cc2ccc(O)cc2)NC(=O)[C@@H](N)CSSC[C@@H](C(=O)N2CCC[C@H]2C(=O)N[C@@H](CC(C)C)C(=O)NCC(N)=O)NC(=O)[C@H](CC(N)=O)NC(=O)[C@H](CCC(N)=O)NC1=O [oxytocin]
[3]
  half life time: less than 6 minutes
